The record followed here is patent publication US20170030926A1, “MARKER OF NEUROPATHIC GAUCHER'S DISEASE AND METHODS OF USE THEREOF” (Yeda Research and Development Co. Ltd., priority 2014, published 2017).

Test [1] can be described thus: Therapeutic effect on the brain in Type 3 GD patients on long-term ERT and miglustat. The class given is in vivo, human. The settings on record: long-term treatment. An excerpt:
Spinal fluid samples were collected for biomarker discovery from patients with Type 3 GD and age-matched control subjects.

The nature of test [2]: Body weight of mice induced for GD by daily CBE injections. It is filed as in vivo, C57BL/6OlaHsd mice. The method, then:
(§1) C57BL/6OlaHsd mice were used as another model of nGD, in which the disease is induced by intra-peritoneal (IP) injection with 100 mg/Kg/day conduritol b epoxide ([…], calbiochem), an irreversible GCase inhibitor.
(§2) Correlation of CSF levels of GPNMB and nGD symptoms was further verified using an additional mouse model of GD, where mice are induced for GD by injections of conduritol b epoxide (CBE), a GCase inhibitor. 100 mg/Kg/day of CBE were daily injected into mice starting on day 15 post-natal. On day 30 the mice were divided into three groups: “CBE D15-30” in which CBE injections were ceased on day 30, “CBE D15-30; PBS D31-41” in which CBE injections were ceased on day 30 and the mice continued to receive phosphate buffered saline (PBS) injections until day 41, and “CBE D15-41”, in which CBE injections were continued to day 41. An additional group of mice was injected with PBS during the entire experiment (“PBS”) and served as a control (FIG. 4A). Mice body weight, a simple indicator of disease progression, was measured daily during the experiment and the results are shown in FIG. 4B.

A further test relates to GPNMB. Nature of the test: GPNMB levels in CSF and brain homogenates of CBE treated mice by ELISA. It is filed as in vivo. The method, then:
as §1
Mice were anesthetized (100mg/kg Ketamine and 10 mg/Kg xylazine) and CSF was aspired from the Cisterna magna using glass needles. Brain tissues were removed and lysed in ˜6 volumes of Ripa buffer (150 mM sodium chloride, 1.0% Triton X-100, 0.5% sodium deoxycholate, 0.1% SDS, 50 mM Tris, pH 8.0) supplemented with a protease inhibitor mixture (Sigma). Following homogenization, samples were centrifuged at 4500gav for 5 min at 4° C., and the supernatant was collected. Protein level was quantified using the BCA protein assay reagent (Pierce Chemical Co.) GPNMB was measured using the mouse GPNMB ELISA kit (R&D systems) According to manufacturer's protocol.
as §2
CSF was aspirated from the Cisterna magna of the mice and GPNMB levels were measured in both CSF (FIG. 4C) and brain homogenates (FIG. 4D) by ELISA. […] Remarkably, GPNMB levels rapidly declined during the recovery period. More specifically, GPNMB levels in the CSF and brain increased upon injection of CBE from day 15-30 and to a higher extent with injection until day 41.

Setting [3] is: compared with mice continuously treated with CBE until day 41.

Regarding `CCCCN1C[C@H](O)[C@@H](O)[C@H](O)[C@H]1CO` [miglustat], in test [1], the “therapeutic effect on the brain” value is reported as “neither had any therapeutic effect on the brain”.

For `O[C@H]1[C@H](O)[C@@H](O)[C@@H]2O[C@@H]2[C@@H]1O` (racemic) [CBE, conduritol b epoxide], the “time until body weight began to decrease after beginning CBE injections” value in test [2] (100 mg/Kg/day IP daily from day 15 post-natal, body weight as indicator of disease progression) lay in the range of 10 to 12 days. For the same compound, the “body weight course after CBE injections ceased” value in test [2] (CBE D15-30, PBS D31-41 group) is recorded as “began to gain weight”. The “body weight course with continued CBE injections” value in test [2] (CBE D15-41 group, 100 mg/Kg/day) is listed as “continued to decrease until day 41”. For the same compound, in the test with GPNMB (CBE treated mice vs PBS control, ELISA), the “GPNMB level in CSF” value was “marked elevation”. Moreover, the “GPNMB level in brain” value with GPNMB (CBE treated mice vs PBS control, brain homogenates, ELISA) is “marked elevation”. In the test with GPNMB (setting [3]), the “GPNMB level in CSF on day 41 after cessation of CBE on day 30” value was “significantly lower level” and the “GPNMB level in brain on day 41 after cessation of CBE on day 30” value is listed as “significantly lower level”.
